From patent publication US7183383B2, “Uses of collagen IV” (The University of Arkansas for Medical Sciences, priority 2002, dated 2007)

Experiments:
Type in all cases: cell-based, rabbit
[1] = tested on: renal proximal tubular cells; assay: Cell density (monolayer protein content) in DCVC-injured RPTC; details: for monolayer protein content in injured RPTC: day 1 or day 6 after DCVC, 50 μg/ml
Procedure: Rabbit renal proximal tubules were isolated using the iron oxide perfusion method and grown in 35-mm tissue culture dishes or 48-well cell culture clusters under improved conditions as previously described (35, 36). The cell culture medium was a 1:1 mixture of DMEM/Ham's F-12 (without D-glucose, phenol red, or sodium pyruvate) supplemented with 15 mM HEPES buffer, 2.5 mM L-glutamine, 1 μM pyridoxine HCl, 15 mM sodium bicarbonate, and 6 mM lactate. Hydrocortisone (50 nM), selenium (5 ng/ml), human transferrin (5 μg/ml), bovine insulin (10 nM), and L-ascorbic acid-2-phosphate (50 μM or 500 μM) were added to fresh culture medium immediately prior to daily media change. L-Ascorbic acid-2-phosphate (AscP) was used due to the fact that L-ascorbic acid is unstable in culture media. AscP is stable in culture media for ≧7 days at 37° C. and, after intracellular dephosphorylation, has the same effect on cultured cells as L-ascorbic acid (13).
(§1) Confluent monolayers of renal proximal tubular cells (day 6 after seeding) were exposed to 200 μM S-(1,2-dichlorovinyl)-L-cysteine (dissolved in water) for 1.75 hours followed by toxicant removal and addition of fresh culture media. This method produces approximately 50% cell death and loss 24 hours after the exposure. On days 1, 4, and 6 following S-(1,2-dichlorovinyl)-L-cysteine exposure, the ability of the remaining renal proximal tubular cells to regenerate and repair physiological function was monitored as described below. In some experiments, immediately after S-(1,2-dichlorovinyl)-L-cysteine exposure and after daily media change through day 6 after injury, collagen I (0, 5, 15, or 50 μg/ml), collagen IV (0, 5, 15, or 50 μg/ml), laminin (50 μg/ml), or cellular fibronectin (50 μg/ml) was added to the culture media of uninjured and S-(1,2-dichlorovinyl)-L-cysteine-injured renal proximal tubular cells grown in physiological concentrations of AscP. Exogenous collagens I and IV used in this study were triple helical and contained only α1 and α2 chains in conformations similar to those found in the renal basement membrane (3, 25). Laminin was a mixture of biologically active laminin chains found in most epithelial tissues (8, 50) and cellular fibronectin was composed of functional dimers (51).
Measurement of monolayer protein content over time was used to estimate cell density. On days 1, 4, and 6 after sublethal S-(1,2-dichlorovinyl)-L-cysteine injury, renal proximal tubular cell monolayers were washed with PBS and solubilized in Triton buffer (0.05% Triton X-100, 100 mM Tris-Base, 150 mM NaCl, pH 7.5). Samples were sonicated and protein concentrations determined using the method of Lowry (26) or the bicinchoninic acid microassay according to the manufacturer's instructions (Pierce, Rockford, Ill.).

[2] = tested on: renal proximal tubular cells; assay: Basal oxygen consumption (QO2), a measure of mitochondrial function
Procedure: as §1
On days 1, 4, and 6 after sublethal S-(1,2-dichlorovinyl)L-cysteine injury, renal proximal tubular cells bathed in 37° C. culture medium were gently detached from culture dishes with a rubber policeman and transferred to a 37° C. oxygen consumption (QO2) chamber. Basal renal proximal tubular cells QO2 was measured polarographically using a Clark-type electrode as described previously (36).

[3] = tested on: Na^+/K^+-ATPase activity in renal proximal tubular cells; assay: Na^+/K^+-ATPase activity (ouabain-sensitive ATPase); details: day 6 after DCVC injury; 50 μg/ml
Procedure: as §1
On days 1 and 6 after sublethal S-(1,2-dichlorovinyl)-L-cysteine injury, total ATPase activity was measured using a modification of a previously described procedure (44). Briefly, renal proximal tubular cells cultured in 48-well cell culture clusters were scraped and incubated in dissociation buffer (5 mM HEPES (pH 7.4), 25 mM imidazole, 1% BSA, 0.065% sodium dodecyl sulfate (SDS)) for 10 min. at room temperature and placed on ice. The dissociated renal proximal tubular cells were then diluted 5-fold with additional dissociation buffer minus SDS. Aliquots of dissociated renal proximal tubular cells were combined with fresh ATPase assay buffer (2.54 mM MgCl2, 100 mM NaCl, 10 mM KCl, 5 mM HEPES, 10 U/ml lactate dehydrogenase, 7 U/ml pyruvate kinase, 2.54 mM Na2ATP, 2.54 mM phospho(enol)pyruvate, and 0.5 mM β-NADH). ATPase activity was measured under linear conditions spectrophotometrically as the oxidation of β-NADH to NAD^+ at 37° C. in the absence or presence of ouabain (0.1 mM) at a wavelength of 340 nm. Na^+/K^+-ATPase activity was calculated as total ATPase activity minus ouabain-insensitive ATPase activity.
Confluent monolayers of renal proximal tubular cells (day 6 after seeding) were exposed to 200 μM S-(1,2-dichlorovinyl)-L-cysteine (dissolved in water) for 1.75 hours followed by toxicant removal and addition of fresh culture media. This method produces approximately 50% cell death and loss 24 hours after the exposure. In some experiments, exogenous collagen IV (50 μg/ml), collagen I (50 μg/ml), or function-stimulating antibodies to collagen-binding integrin subunits α2 or β1 (5 μg/ml) was added daily to the culture media of S-(1,2-dichlorovinyl)-L-cysteine-injured renal proximal tubular cells cultured in the absence of pharmacological concentrations of L-ascorbic acid-2-phosphate. Function-stimulating antibodies to collagen-binding integrin α1 are not commercially available at this time. On days 1 and 6 following S-(1,2-dichlorovinyl)-L-cysteine exposure, active Na^+ transport or Na^+/K^+-ATPase activity, and collagen-binding integrin expression and/or localization in the remaining sublethally injured renal proximal tubular cells was determined as described below.
Total ATPase activity was measured as described above. […]

[4] = day 1 after DCVC injury, in presence of exogenous protein
[5] = day 6 after DCVC injury, 5, 15, 50 μg/ml
[6] = uninjured RPTC, days 1 or 6, exogenous protein

| Substance | decrease in monolayer cell density [1, 4] | monolayer protein content in injured RPTC [1] | cell density [1, 5] | monolayer cell density in untreated RPTC [1, 6] | decrease in basal QO2 [2, 4] | repair of basal QO2 [2, 5] | basal QO2 in untreated RPTC [2, 6] | Na^+/K^+-ATPase activity in injured RPTC [3] |
| --- | --- | --- | --- | --- | --- | --- | --- | --- |
| collagen I: Rat tail collagen I; triple helical, containing only α1 and α2 chains | approximately 50% | no change | neither increased cell density nor repair of basal QO2 | no effect | approximately 50% | neither increased cell density nor repair of basal QO2 | no effect | remained inhibited |
| fibronectin | – | no change | – | – | – | – | – | remained inhibited |
| laminin | – | no change | – | – | – | – | – | remained inhibited |
